Measurements published in PMC9686339, “Bioassay-guided isolation of Fenghuang Dancong tea constituents with α-glucosidase inhibition activities” (Frontiers in Nutrition, 2022).
Where two headings read alike, the source gives them in different places.

Columns and labels:
[1] = Liposolubility (qualitative observation); assay type: physicochemical
α-glucosidase [2] = assay: Enzyme kinetic experiments on α-glucosidase (reversibility, Lineweaver-Burk plots, secondary replot); assay type: biochemical
Description: The reversibility of enzyme inhibition can be determined according to the influence of sample concentration and enzyme concentration on enzyme activity. […] This implied that 1 was a reversible α-glucosidase inhibitor ([16]). The reversibility of the inhibition of α-glucosidase by different flavonoids has been studied extensively ([17]). However, definitive conclusions cannot been drawn about the relationship between the structure of flavonoids and the reversibility of the inhibition of α-glucosidase ([18]).
The double-reciprocal diagram, based on a Lineweaver–Burk plot, is widely used to investigate inhibitory kinetics of compounds on enzymes. […] Thus, the complex formed by the combination of compound 1 with substrate and α-glucosidase led to the inactivation of the latter. In addition, the number of binding sites between the compound and α-glucosidase can be obtained by a second linear fitting of the concentration of compound 1 and Y-intercept, which is shown in Figure 4D. […] Through further calculation, the binding constant was obtained as 4.58 × 10^4 L/mol. There were obvious differences in the inhibition mechanism of different types of flavonoids on α-glucosidase. […] The above facts indicate that the mechanisms of action of flavonoids on glucosidase are diverse and complex.

α-glucosidase [3] = assay: α-glucosidase inhibition assay (p-NPG substrate); assay type: biochemical; conditions: pH 6.8, 37°C
Description: This experiment was carried out according to the literature ([11]). Briefly, the test sample was dissolved in solutions (SS) with DMSO as the solvent. p-NPG and α-glucosidase were, respectively mixed with phosphate buffer (PB, 60 mM phosphate, pH 6.8) and used as stock solutions. The concentration of α-glucosidase solution (GS) was 0.5 U/ml and that of p-NPG solution (NS) was 5 mM. In addition, four different solutions (A, B, C and D) were prepared: Solution A contained 112 μl PB, 20 μl GS, and 8 μl SS; Solution B contained 112 μl PB and 20 μl GS; Solution C contained 112 μl PB, 8 μl SS, and 20 μl GS; and Solution D contained 132 μl PB and 8 μl DMSO. After starting each reaction at 37°C, p-nitrophenol was quantified by measuring the absorbance at 405 nm with a UV–vis spectrophotometer. The inhibition rate was calculated according to equation (1):
(1) Inhibition rate (%)= [((Aas − Bas)[…]) / (Aas −Bas)][…],
where Aas, Bas, Cas and Das are the absorbances of solution A, B, C and D, respectively. The sample concentration that inhibited 50% α-glucosidase activity was defined as the IC50value.

HepG2 cells = assay: Glucose consumption assay in HepG2 cells; assay type: cell-based; conditions: 0.18 mg/L, 24 h, medium with 12.0 mM glucose
Description: Here, HepG2 cells were used to evaluate the glucose consumption of the isolated compounds according to a method described in the literature ([12]). Briefly, HepG2 cells were cultured for 24 h. Subsequently, they were transferred from DMEM medium (containing FBS, PEM and SM) to another DMEM medium (containing 12.0 mM glucose). Then, HepG2 cells and the test samples with a concentration of 0.18 mg/L were incubated together for another 24 h. The glucose consumption was obtained by measuring the glucose content of the cell culture supernatant with a glucose kit.

α-glucosidase [4] = test system: α-glucosidase; design: method as in PMID 30236734; conditions: cited from earlier work
α-glucosidase [5] = target: α-glucosidase; design: method as in PMID 28554631; conditions: constituent of Yingde black tea; read-out: IC50 of α-glucosidase inhibition; cited from earlier work

| Compound | Liposolubility [1] | IC50 (α-glucosidase [3]) [µM] | Glucose consumption (HepG2 cells) [mmol/L] | also measured |
| --- | --- | --- | --- | --- |
| COc1ccc([C@H]2CC(=O)c3c(cc(O)c(/C=C(/C)CCC=C(C)C)c3O)O2)cc1O [compound 1, (R, z)-6-(2,6-xylheptane-1,5-dien-1-yl)-5,7-dihydroxy-2-(3-hydroxy-4-methoxyphenyl) chroman-4-one] | excellent | 7.51 | 10.58 ± 0.18 | Type of α-glucosidase inhibition (α-glucosidase [2]; Lineweaver-Burk plot): non-competitive; Binding constant with α-glucosidase (α-glucosidase [2]; calculated from secondary replot): 45800 L/mol; Reversibility of the inhibition of α-glucosidase (α-glucosidase [2]; enzyme concentration vs enzyme activity at a series of sample dosages): reversible; Number of binding sites with α-glucosidase (α-glucosidase [2]; secondary replot of Y-intercept vs concentration): one; melting point: 165 °C |
| COc1ccc([C@H]2CC(=O)c3c(cc(O)c(/C=C(\C)CCC=C(C)C)c3O)O2)cc1O [compound 2, (R,E)-6-(2,6-dimethylhepta−1,5-dien-1-yl)-5,7-dihydroxy-2-(3-hydroxy-4-methoxyphenyl) chroman-4-one] | almost the same | 33.2 ± 2.21 | 9.40 ± 0.12 |  |
| CC1=CC[C@H](C)C(c2c(O)cc3occ(-c4ccc(O)cc4)c(=O)c3c2O)=CC1 [compound 3, (S)-6-(4,7-dimethylcyclohepta-1,4-dien-1-yl)-5,7-dihydroxy-3-(4-hydroxyphenyl)−4H-chromen-4-one] | slightly inferior to the others | 56.4 ± 2.11 | 8.98 ± 0.39 |  |
| O=c1c(O)c(-c2ccccc2)oc2cc(O)cc(O)c12 [galangin] |  |  |  | Number of binding sites with α-glucosidase (α-glucosidase [4]): one; Type of α-glucosidase inhibition (α-glucosidase [4]): mixed inhibition of competitive inhibition and non-competitive inhibition |
| amelliaone A |  |  |  | IC50 (α-glucosidase [5]): 10.2 µM |
| ameridone D [compound 4] |  | 76.5 ± 3.52 | 8.30 ± 0.33 |  |
| ameridone E [compound 5] |  | 81.7 ± 2.72 | 9.06 ± 0.15 |  |
